Tests used:
[1] = Fat binding feeding study in rats on formulated high fat diet
Description: (§1) All rats were fed a basal diet for 5 days prior to initiation of dosing on Day 0. At Day 0, animals in Groups 1 to 5 and 7 received the appropriate formulated diet. The diet was available ad libitum. […] The total amount of the diet consumed by each animal was determined every 3 to 4 days.

[2] = rat, in vivo
Description: as §1

Bilirubin [2]: 0.4 mg/dL
SMILES: CCCCCCCCCCC[C@@H](C[C@@H]1OC(=O)[C@H]1CCCCCC)OC(=O)[C@H](CC(C)C)NC=O [Xenical]
Triglycerides ([1]; blood of rats, test article in diet): 107 mg/dL
Weight Gain ([1]; rats, test article in diet ad libitum): 425 gms
ALT [2]: 54 IU/L
AST [2]: 104 IU/L

— patent US20030018176A1, “Dry acid-chitosan complexes” (priority 1999, published 2003)
